PubChem BioAssay (NCI)
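These data come from cells grown in 96-well plates and exposed to compound for 48 hours at five concentrations. The concentration for full growth arrest is given as TGI.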

Experiments:
Assay in all cases: growth of human tumour cells (NCI), 48 h
[1] = tested on: EKVX NSCLC
[2] = tested on: KM12 colon
[3] = tested on: OVCAR-5 ovarian
[4] = tested on: SN12C renal
[5] = tested on: SK-MEL-28 melanoma
[6] = tested on: ACHN renal
[7] = tested on: PC-3 prostate
[8] = tested on: HOP-92 NSCLC
[9] = tested on: SF-539 CNS
[10] = tested on: HCC-2998 colon
[11] = tested on: SK-MEL-5 melanoma
[12] = tested on: HCT-116 colon
[13] = tested on: RPMI-8226 leukemia

SMILES	TGI [1] [µM]	TGI [2] [µM]	TGI [3] [µM]	TGI [4] [µM]	TGI [5] [µM]	TGI [6] [µM]	TGI [7] [µM]	TGI [8] [µM]	TGI [9] [µM]	TGI [10] [µM]	TGI [11] [µM]	TGI [12] [µM]	TGI [13] [µM]
CCOC(=O)P(=O)(O)c1ccc(N(C)Cc2ccccc2)cc1	> 100	> 100	> 100	> 100	> 100	> 100	> 100	> 100	> 100	> 100	> 100	> 100	> 100
CCCCCCCCCCCCCCCCCCNC(=O)C(N)Cc1ccc(OCc2ccccc2)cn1 (configuration not stated)	46.8	35.5	43.1	49.3	50.8	56.4	27.7	41.3	–	24.2	31.9	38.2	80.6
CCOC(CN(C)C(=O)Nc1cccc2ccccc12)OCC	> 10	> 10	–	> 10	> 10	> 10	> 10	> 10	> 10	> 10	> 10	> 10	> 10
CC(=O)NC1C(OCc2ccccc2)OC(CO)C(O)C1OC(C)C(=O)NC(C(=O)N[C@@H](CCC(=O)NCCNCCNc1c2ccccc2nc2cccc([N+](=O)[O-])c12)C(N)=O)C(C)C (some centres not stated)	–	98.7	–	> 100	> 100	73.5	> 100	69.9	45.6	50.4	–	56.2	58.7
Cn1c(=O)c(Br)c(C=O)n(CCO[N+](=O)[O-])c1=O	7.07	–	13.8	17.4	4.73	13.2	23.5	6.85	32.8	32	23.9	16.1	7.42
CNc1ncnc2c1ncn2C1C=CC(COS(N)(=O)=O)C1 (configuration not stated)	> 100	> 100	–	> 100	> 100	> 100	> 100	> 100	> 100	> 100	> 100	> 100	> 100
O=C1/C(=C/c2cccc(F)c2)CCCc2ccccc21	28.6	24.4	28.3	31.8	30.2	33.1	29.1	29.2	31.2	27.8	–	29	53.7
Cn1c2ccccc2n2c(N=O)c(-c3ccccc3)nc12	> 100	69.8	> 100	> 100	> 100	> 100	> 100	> 100	–	28.3	34.1	> 100	> 100
Cc1ccc2c(c1)[nH]c(=S)n2/C=C1\C(=O)Oc2ccccc2C1=O	–	> 100	> 100	> 100	> 100	> 100	> 100	71.5	> 100	> 100	> 100	> 100	> 100
